This is an account of results in patent publication US20090111836A1, “Angular Pyranocoumarins, Process for Preparation and Uses Thereof” (CITY UNIVERSITY OF HONG KONG, priority 2007, published 2009).

Series [1] deals with T1, P-gp (Homo sapiens, UniProt P08183). Nature of the series: Rhodamine-123 efflux assay, HepG2-DR. Type of series: cell-based. The arrangement: KB V1, HepG2-DR and K562-DR cell expressed P-gp at high level when compared with parental drug sensitive cells thereof; endogenous in cells; host or cells: HepG2-DR (doxorubicin-maintained multidrug resistant subline of HepG2). To be noted: 10 μM, 1 hour efflux. The procedure:
(§1) (Fs: cellular fluorescence intensity of Rb-123 in the presence of testing drugs; Fo: cellular fluorescence intensity of Rh-123 in the absence of any P-gp modulator).
(§2) 1.4 Test for Rh-123 transport: HepG2-DR cells or K562-DR cells (1×10^6 cells in 1 mL complete growth medium) were incubated with 5 μg/mL, Rh-123 at 37° C. for 1 hour to allow Rh-123 uptake. […] Cellular fluorescence of Rh-123 was determined by flow cytometry to analyze the inhibitive effect of test compounds on drug expulsion from cells.

Series [2] addresses T1, P-gp. Nature of the series: Rhodamine-123 efflux assay, K562-DR. Further details: K562-DR cell expressed P-gp at high level when compared with parental drug sensitive cells thereof; endogenous in cells. Type of series: cell-based. To be noted: 10 μM, 1 hour efflux. The procedure:
as §1, §2

T1 sequence (P08183 whole entry): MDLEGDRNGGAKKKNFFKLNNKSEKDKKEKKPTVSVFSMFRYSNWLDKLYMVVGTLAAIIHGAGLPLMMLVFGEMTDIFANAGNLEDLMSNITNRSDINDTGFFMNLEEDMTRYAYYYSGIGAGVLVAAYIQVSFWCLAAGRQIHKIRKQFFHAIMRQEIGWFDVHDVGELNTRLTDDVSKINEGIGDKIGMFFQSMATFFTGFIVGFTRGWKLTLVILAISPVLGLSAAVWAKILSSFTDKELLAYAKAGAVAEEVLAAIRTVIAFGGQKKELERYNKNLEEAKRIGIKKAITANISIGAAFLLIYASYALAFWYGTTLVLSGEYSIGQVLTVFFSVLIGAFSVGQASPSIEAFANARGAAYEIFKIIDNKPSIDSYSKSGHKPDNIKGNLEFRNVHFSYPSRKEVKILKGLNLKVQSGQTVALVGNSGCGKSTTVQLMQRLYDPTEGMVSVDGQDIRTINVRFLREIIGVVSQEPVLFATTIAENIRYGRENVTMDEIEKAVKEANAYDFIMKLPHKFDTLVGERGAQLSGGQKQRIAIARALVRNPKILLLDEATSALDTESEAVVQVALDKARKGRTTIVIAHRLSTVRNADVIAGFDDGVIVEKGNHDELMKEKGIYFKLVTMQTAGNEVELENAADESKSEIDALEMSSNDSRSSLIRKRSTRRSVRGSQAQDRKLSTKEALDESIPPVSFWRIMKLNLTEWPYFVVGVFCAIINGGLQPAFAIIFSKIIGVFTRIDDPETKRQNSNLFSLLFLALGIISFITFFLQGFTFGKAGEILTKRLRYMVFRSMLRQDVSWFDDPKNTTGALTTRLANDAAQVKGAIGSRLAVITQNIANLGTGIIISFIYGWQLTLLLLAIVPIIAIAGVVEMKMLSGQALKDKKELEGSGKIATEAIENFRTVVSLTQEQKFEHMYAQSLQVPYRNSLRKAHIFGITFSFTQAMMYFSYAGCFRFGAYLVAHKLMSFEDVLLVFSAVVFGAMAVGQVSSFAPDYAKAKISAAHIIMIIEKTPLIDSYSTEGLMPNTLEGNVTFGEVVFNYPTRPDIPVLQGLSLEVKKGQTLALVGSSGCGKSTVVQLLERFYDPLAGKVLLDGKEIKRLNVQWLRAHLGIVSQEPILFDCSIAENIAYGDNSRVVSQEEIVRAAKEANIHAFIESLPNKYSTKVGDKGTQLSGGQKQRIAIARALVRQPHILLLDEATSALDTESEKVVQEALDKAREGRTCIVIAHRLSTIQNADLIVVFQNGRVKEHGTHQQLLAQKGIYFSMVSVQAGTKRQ

`COc1ccc(C(=O)O[C@@H]2c3c(ccc4ccc(=O)oc34)OC(C)(C)[C@@H]2OC(=O)c2ccc(OC)c(OC)c2)cc1OC` (racemic) [cis-DMDBK, (±)-3′-O,4′-O-bis(3,4-dimethoxybenzoyl)-cis-khellactone]: the “Increase in cellular Rh-123 fluorescence compared with untreated cells” value in series [1] is recorded as 400%; in series [2], 140%.

As for `COc1ccc(/C=C/C(=O)O[C@@H]2c3c(ccc4ccc(=O)oc34)OC(C)(C)[C@@H]2OC(=O)/C=C/c2ccc(OC)c(OC)c2)cc1OC` (racemic) [cis-DMDCK, (±)-3′-O,4′-O-bis(3,4-dimethoxycinnamoyl)-cis-khellactone], the “Increase in cellular Rh-123 fluorescence compared with untreated cells” value in series [1] amounted to 480%; in series [2] it was 200%.
